Patent USRE32333E, “A-21978 Antibiotics and process for their production” (priority 1985, dated 1987)
Values after ≈ are worked out from the molar mass of the structure shown. Values joined by “and” are separate entries in the source; they are usually repeats but may differ in a detail not shown here. Identical values can stand only once. Like-named read-outs stand apart in the source and are kept apart here.

Legend:
[1] = test system: A21978.6 (Streptomyces roseosporus NRRL 11379); test: Antibiotic sensitivity of producing culture (sensitivity discs); type: cell-based; set-up: key: + = sensitive (zones of inhibition); - = resistant (no zones of inhibition); conditions: discs on seeded ISP #2 agar; erythromycin 15 μg, cephalothin 30 μg, lincomycin 2 μg, nystatin 100 units, polymyxin B 300 units, streptomycin 10 μg, tetracycline 30 μg, vancomycin 30 μg
Description: (§1) Temperature range, NaCl tolerance, pH range, and antibiotic sensitivity were done using ISP #2 agar medium. The range of temperatures were: 25°, 28°, 30°, 34°, 37°, 40°, 45°, 50° and 55° C. NaCl tolerance was measured by adding NaCl to the agar to equal: 0, 1, 2, 3, 4, 5, 6, 8, 10 and 12%. These were incubated at 30° C. The pH range was measured by adjusting the agar from pH 3.0 to 11.0 at increments of 1.0 pH units, just prior to pouring. Antibiotic sensitivity was determined using sensitivity discs padded onto seeded agar plates.

[2] = test system: S. roseosporus (ISP 5122; ATCC 23958); test: Antibiotic sensitivity of comparison culture (sensitivity discs); type: cell-based, Streptomyces roseosporus; set-up: key: + = sensitive (zones of inhibition); - = resistant (no zones of inhibition); conditions: discs on seeded ISP #2 agar; erythromycin 15 μg, cephalothin 30 μg, lincomycin 2 μg, nystatin 100 units, polymyxin B 300 units, streptomycin 10 μg, tetracycline 30 μg, vancomycin 30 μg
Description: as §1, with “plates. Streptomyces roseosporus ISP 5122; ATCC 23958” for “plates.”

[3] = test system: Staphylococcus aureus; test: MIC, agar dilution (Table XV); type: cell-based
Text: (§2) ^1 MIC = minimum inhibitory concentration (μg/ml), agar dilution

[4] = test system: Streptococcus pyogenes; test: MIC, agar dilution (Table XV); type: cell-based
Text: as §2

[5] = test system: Streptococcus pneumoniae; test: MIC, agar dilution (Table XV); type: cell-based
Text: as §2

[6] = test system: Staphylococcus aureus; test: Experimental bacterial infection in mice, ED50; type: in vivo; conditions: S. aureus infection, two doses, subcutaneous administration
Description: (§3) When two doses of test compound were administered to mice in illustrative infections, the activity observed as measured as an ED50 value [effective dose in mg/kg to protect fifty percent of the test animals: See Warren Wick, et al., J. Bacteriol, 81, 233-235 (1961)].

[7] = test system: Streptococcus pyogenes; test: Experimental bacterial infection in mice, ED50; type: in vivo; conditions: S. pyogenes infection, two doses
Description: as §3

[8] = test system: Streptococcus pneumoniae; test: Experimental bacterial infection in mice, ED50; type: in vivo; conditions: S. pneumoniae infection, two doses, subcutaneous administration
Description: as §3

[9] = test system: Viridans Streptococcus 9943; test: MIC, standard broth-dilution test (Table XII); type: cell-based; conditions: aerobic
[10] = test system: Fusobacterium necrophorum; test: MIC against anaerobic bacteria, standard agar-dilution (Table XIV); type: cell-based; conditions: anaerobe
[11] = test system: Peptostreptococcus anaerobius; test: as above; type: cell-based; conditions: anaerobe
[12] = test system: Viridans Streptococcus 9943; test: MIC, standard agar-dilution test (Table XI); type: cell-based; conditions: aerobic, sodium salt form
[13] = test system: Bacteroides fragilis; test: MIC against anaerobic bacteria, standard agar-dilution (Table XIV); type: cell-based; conditions: anaerobe
[14] = test system: Eubacterium aerofaciens; test: as above; type: cell-based; conditions: anaerobe
[15] = test system: Propionibacterium acnes; test: as above; type: cell-based; conditions: anaerobe
[16] = test system: Streptococcus pneumoniae Park I; test: MIC, standard agar-dilution test (Table XI); type: cell-based; conditions: aerobic, S. pneumoniae Park I, sodium salt form
[17] = Mouse
[18] = test system: Streptococcus faecalis (Guze); test: Streptococcus faecalis descending rat pyelonephritis test; conditions: for Percent of Rats Cured: cure = kidney counts less than 10^2 per g; for Percent of Rats with a 4-Log Titer Decrease: once daily, kidney titer vs infected controls
[19] = test system: Peptostreptococcus intermedius; test: MIC against anaerobic bacteria, standard agar-dilution (Table XIV); type: cell-based; conditions: anaerobe
[20] = test system: Peptococcus prevoti; test: as above; type: cell-based; conditions: anaerobe
[21] = test system: Streptococcus pyogenes C203; test: MIC, standard agar-dilution test (Table XI); type: cell-based; conditions: aerobic, S. pyogenes C203, sodium salt form
[22] = test system: Micrococcus luteus; test: Paper-disc agar-diffusion bioassay; conditions: individual factors, Na salts
[23] = test system: Group D Streptococcus 282; test: MIC, standard broth-dilution test (Table XII); type: cell-based; conditions: aerobic
[24] = test system: Streptococcus pyogenes C203; test: MIC, standard broth-dilution test (Table XII); type: cell-based; conditions: aerobic, S. pyogenes C203
[25] = test system: Staphylococcus aureus 3055; test: MIC, standard broth-dilution test (Table XII); type: cell-based; conditions: aerobic, S. aureus 3055
[26] = test system: Group D Streptococcus 282; test: MIC, standard agar-dilution test (Table XI); type: cell-based; conditions: aerobic, sodium salt form
[27] = test system: Clostridium perfringens; conditions: anaerobe, agar-dilution
[28] = test system: Neisseria gonorrhoeae 111076-4; test: MIC, standard agar-dilution test (Table XI); type: cell-based; conditions: aerobic, N. gonorrhoeae 111076-4, sodium salt form
[29] = test system: Staphylococcus aureus; test: MIC against clinical isolates, ICS agar-dilution (Table XIII); type: cell-based; conditions: 10 clinical isolates, bracket = number of isolates with this MIC or range
[30] = Electrometric titration in 66% aqueous dimethylformamide; type: physicochemical; conditions: 66% DMF, Na salt forms; factors: two determinations
[31] = test system: Actinomyces israelii; test: MIC against anaerobic bacteria, standard agar-dilution (Table XIV); type: cell-based; conditions: anaerobe
[32] = test system: Peptococcus asaccharolyticus; test: as above; type: cell-based; conditions: anaerobe
[33] = Rat, IV
[34] = test system: Streptococcus pneumoniae Park I; test: MIC, standard broth-dilution test (Table XII); type: cell-based; conditions: aerobic, S. pneumoniae Park I
[35] = test system: Fusobacterium symbiosum; test: MIC against anaerobic bacteria, standard agar-dilution (Table XIV); type: cell-based; conditions: anaerobe
[36] = test system: Staphylococcus aureus 3055; test: MIC, standard agar-dilution test (Table XI); type: cell-based; conditions: aerobic, S. aureus 3055, sodium salt form
[37] = test system: Streptococcus faecalis (Guze); test: In vitro susceptibility (MIC) of the S. faecalis Guze strain; type: cell-based
Text: ^1 In vitro susceptibility of the S. faecalis Guze strain

[38] = test system: Clostridium septicum; test: MIC against anaerobic bacteria, standard agar-dilution (Table XIV); type: cell-based; conditions: anaerobe

Compound: Polymyxin B
- Antibiotic Sensitivity, A21978.6 [1]: +
- Antibiotic Sensitivity, S. roseosporus [2]: -

Compound: CN(C)[C@@H]1C(O)=C(C(N)=O)C(=O)[C@@]2(O)C(O)=C3C(=O)c4c(O)cccc4[C@@](C)(O)[C@H]3C[C@@H]12 [Tetracycline]
- Antibiotic Sensitivity, A21978.6 [1]: +
- Antibiotic Sensitivity, S. roseosporus [2]: +

Compound: C[C@@H]1[C@H](O)[C@@H](C)/C=C/C=C/CC/C=C/C=C/C=C/C=C/C(O[C@H]2O[C@H](C)[C@@H](O)[C@H](N)[C@@H]2O)CC2O[C@](O)(CC(O)C(O)CCC(O)CC(O)CC(O)CC(=O)O[C@H]1C)CC(O)C2C(=O)O (stereo partly shown) [Nystatin]
- Antibiotic Sensitivity, A21978.6 [1]: -
- Antibiotic Sensitivity, S. roseosporus [2]: -

Compound: CC[C@H]1OC(=O)[C@H](C)[C@@H](O[C@H]2C[C@@](C)(OC)[C@@H](O)[C@H](C)O2)[C@H](C)[C@@H](O[C@@H]2O[C@H](C)C[C@H](N(C)C)[C@H]2O)[C@](C)(O)C[C@@H](C)C(=O)[C@H](C)[C@@H](O)[C@]1(C)O [Erythromycin, reference compound]
- Antibiotic Sensitivity, A21978.6 [1]: +
- Antibiotic Sensitivity, S. roseosporus [2]: +
- MIC ([3]; read-out: MIC): 0.13 mg/L (≈ 0.177 µM)
- MIC ([4]; read-out: MIC): 0.13 mg/L (≈ 0.177 µM)
- MIC ([5]; read-out: MIC): 0.5 mg/L (≈ 0.681 µM)
- ED50 ([6]; Staphylococcus aureus, sc, read-out: ED50): 0.5 mg/kg
- ED50 ([7]; Streptococcus pyogenes, sc, subcutaneous administration, read-out: ED50): 0.64 mg/kg
- ED50 ([8]; Streptococcus pneumoniae, sc, read-out: ED50): 7.3 mg/kg

Compound: CC(C)CCCCCCCCC(=O)NC(Cc1c[nH]c2ccccc12)C(=O)NC(CC(N)=O)C(=O)NC(CC(=O)O)C(=O)NC1C(=O)NCC(=O)NC(CCCN)C(=O)NC(CC(=O)O)C(=O)NC(C)C(=O)NC(CC(=O)O)C(=O)NCC(=O)NC(CO)C(=O)NC(C(C)CC(=O)O)C(=O)NC(CC(=O)c2ccccc2N)C(=O)OC1C (stereo not shown) [Factor C2]
- MIC [9]: 16.0 mg/L (≈ 9.7 µM)
- MIC [10]: 64 mg/L (≈ 38.8 µM)
- MIC [11]: 1.0 mg/L (≈ 0.607 µM)
- MIC [12]: 1.0 mg/L
- MIC [13]: > 128 mg/L
- MIC [14]: 8 mg/L (≈ 4.85 µM)
- MIC [15]: 2 mg/L (≈ 1.21 µM)
- MIC [16]: 0.25 mg/L
- LD50 ([17]; IV): 150 to 250 mg/kg
- LD50 ([17]; SC): 175 mg/kg
- Percent of Rats Cured ([18]; 1.0 mg/kg x 7 subcutaneous): 89
- Percent of Rats with a 4-Log Titer Decrease ([18]; 1.0 mg/kg x 7 subcutaneous): 100
- MIC [19]: 1.0 mg/L (≈ 0.607 µM)
- MIC [20]: 1.0 mg/L (≈ 0.607 µM)
- MIC [21]: 0.13 mg/L
- Bioassay (Micrococcus luteus) [22]: 1390 units/mg
- MIC [3]: 0.13 mg/L (≈ 0.0788 µM)
- MIC [4]: 0.13 mg/L (≈ 0.0788 µM)
- MIC [5]: 0.13 mg/L (≈ 0.0788 µM)
- MIC [23]: 1.0 mg/L (≈ 0.607 µM)
- MIC [24]: 0.25 mg/L (≈ 0.152 µM)
- MIC [25]: 0.5 mg/L (≈ 0.303 µM)
- MIC [26]: 0.25 mg/L
- MIC [27]: 8 mg/L (≈ 4.85 µM)
- MIC [28]: 4.0 mg/L
- Minimum Inhibitory Concentration [29]: 0.12 to 0.25 µg/mL
- pKa Values (first group) [30]: 5.8 and 5.93
- pKa Values (second group) [30]: 7.6 and 7.63
- MIC [31]: 1.0 mg/L (≈ 0.607 µM)
- MIC [32]: 2 mg/L (≈ 1.21 µM)
- LD50 [33]: 204 ± 17 mg/kg
- MIC [34]: 1.0 mg/L (≈ 0.607 µM)
- ED50 [6]: 0.16 mg/kg
- ED50 ([7]; oral administration): 59 mg/kg
- ED50 ([7]; subcutaneous administration): 0.032 mg/kg
- ED50 [8]: 0.14 mg/kg
- MIC [35]: > 128 mg/L
- MIC [36]: 0.13 mg/L
- MIC [37]: 0.25 mg/L (≈ 0.152 µM)
- MIC [38]: 1.0 mg/L (≈ 0.607 µM)

Compound: CN[C@H](CC(C)C)C(=O)N[C@H]1C(=O)N[C@@H](CC(N)=O)C(=O)N[C@H]2C(=O)N[C@H]3C(=O)N[C@H](C(=O)N[C@H](C(=O)O)c4cc(O)cc(O)c4-c4cc3ccc4O)[C@H](O)c3ccc(c(Cl)c3)Oc3cc2cc(c3O[C@@H]2O[C@H](CO)[C@@H](O)[C@H](O)[C@H]2O[C@H]2C[C@](C)(N)[C@H](O)[C@H](C)O2)Oc2ccc(cc2Cl)[C@H]1O [Vancomycin, reference compound]
- Antibiotic Sensitivity, A21978.6 [1]: +
- Antibiotic Sensitivity, S. roseosporus [2]: +
- Percent of Rats Cured ([18]; 12.0 mg/kg x 7 subcutaneous): 33
- Percent of Rats with a 4-Log Titer Decrease ([18]; 12.0 mg/kg x 7 subcutaneous): 55

Compound: CCC[C@@H]1C[C@@H](C(=O)N[C@@H]([C@H]2O[C@H](SC)[C@H](O)[C@@H](O)[C@H]2O)[C@@H](C)O)N(C)C1 [Lincomycin]
- Antibiotic Sensitivity, A21978.6 [1]: -
- Antibiotic Sensitivity, S. roseosporus [2]: -

Compound: [H]/N=C(/N)N[C@H]1[C@H](O)[C@@H](O)[C@H](O[C@@H]2O[C@@H](C)[C@](O)(C=O)[C@H]2O[C@@H]2O[C@@H](CO)[C@H](O)[C@@H](O)[C@@H]2NC)[C@@H](N/C(N)=N\[H])[C@@H]1O [Streptomycin]
- Antibiotic Sensitivity, A21978.6 [1]: +
- Antibiotic Sensitivity, S. roseosporus [2]: +

Compound: CC(=O)OCC1=C(C(=O)O)N2C(=O)[C@@H](NC(=O)Cc3cccs3)[C@H]2SC1 [Cephalothin]
- Antibiotic Sensitivity, A21978.6 [1]: +
- Antibiotic Sensitivity, S. roseosporus [2]: +
